Laboratory results as given in patent US20110082130A1 (LIGAND PHARMACEUTICALS, INC., priority 2006, published 2011).

Biological target: T1, chimeric human H3 receptor (Homo sapiens, UniProt Q9Y5N1)
T1 construct: made in house; host or cells: Sf9 insect cells (baculovirus); P2 membrane preparation
Test: Chimeric human H3 receptor GTP binding assay (agonist-stimulated GTP-gamma35S binding, Example 7)
Assay type: biochemical
Conditions: Table II; "*" = Ki in assay of Example 7 less than 1 micromolar
Outline: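 Sf9 membranes co-expressing chimeric human H3 receptor and heterotrimeric G-protein, 35 μg/tube, in pH 7.4 Tris buffer with 10 μM GDP. Test compounds (10^−10–10^−6 M) competed against 1 μM histamine, […] GTP-gamma35S, 60 min at room temperature. Filter-bound radioactivity counted; IC50 converted to Ki by Cheng-Prusoff. Agonism/inverse agonism tested without histamine (EC50).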

T1 sequence (Q9Y5N1 with tags, fused parts or gaps): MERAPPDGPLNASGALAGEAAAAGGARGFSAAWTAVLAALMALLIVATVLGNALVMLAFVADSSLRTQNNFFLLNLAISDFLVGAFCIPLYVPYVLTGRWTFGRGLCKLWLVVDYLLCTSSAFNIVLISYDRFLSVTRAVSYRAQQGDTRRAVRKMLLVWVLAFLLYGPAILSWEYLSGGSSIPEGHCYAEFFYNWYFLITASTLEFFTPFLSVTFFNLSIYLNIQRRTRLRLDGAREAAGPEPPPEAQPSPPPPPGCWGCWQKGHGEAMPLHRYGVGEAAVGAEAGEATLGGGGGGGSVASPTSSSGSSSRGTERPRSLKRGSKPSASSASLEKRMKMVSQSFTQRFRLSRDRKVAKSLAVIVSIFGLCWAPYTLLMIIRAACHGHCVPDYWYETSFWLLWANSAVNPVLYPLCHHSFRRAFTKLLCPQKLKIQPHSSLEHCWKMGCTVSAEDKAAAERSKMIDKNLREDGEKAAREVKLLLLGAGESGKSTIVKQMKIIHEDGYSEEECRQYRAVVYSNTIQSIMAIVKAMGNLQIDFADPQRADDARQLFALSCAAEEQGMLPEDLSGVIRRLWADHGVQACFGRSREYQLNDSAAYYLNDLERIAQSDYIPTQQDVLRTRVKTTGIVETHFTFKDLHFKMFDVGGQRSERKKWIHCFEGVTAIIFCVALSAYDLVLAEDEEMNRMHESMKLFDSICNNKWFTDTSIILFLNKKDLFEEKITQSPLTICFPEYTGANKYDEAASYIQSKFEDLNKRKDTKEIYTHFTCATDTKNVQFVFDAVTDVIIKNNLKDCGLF

SMILES	Ki
O=C(CN1CCc2cc(-c3cncnc3)ccc2C1)N1CCN2CCCCC2C1 (centres unmarked) [Compound 151, 2-[(6-pyrimidin-5-yl-3,4-dihydroisoquinolin-2(1H)-yl)acetyl]octahydro-2H-pyrido[1,2-a]pyrazine]	< 1 µM
O=C(CN1CCc2cc(-n3cccn3)ccc2C1)N1CCN2CCCCC2C1 (centres unmarked) [Compound 153, 2-{[6-(1H-pyrazol-1-yl)-3,4-dihydroisoquinolin-2(1H)-yl]acetyl}octahydro-2H-pyrido[1,2-a]pyrazine]	< 1 µM
CC(=O)c1ccc2c(c1)CCN(CC(=O)N1CCN3CCCCC3C1)C2 (centres unmarked) [Compound 154, 1-{2-[2-(octahydro-2H-pyrido[1,2-a]pyrazin-2-yl)-2-oxoethyl]-1,2,3,4-tetrahydroisoquinolin-6-yl}ethanone]	< 1 µM
O=C(CN1CCc2cc(-n3ccc(C(F)(F)F)n3)ccc2C1)N1CCN(C2CCC2)CC1 [Compound 157, 2-[2-(4-cyclobutylpiperazin-1-yl)-2-oxoethyl]-6-[3-(trifluoromethyl)-1H-pyrazol-1-yl]-1,2,3,4-tetrahydroisoquinoline]	< 1 µM
O=C(CN1CCc2cc(-n3ccc(C(F)(F)F)n3)ccc2C1)N1CCN2CCCCC2C1 (centres unmarked) [Compound 159, 2-({6-[3-(trifluoromethyl)-1H-pyrazol-1-yl]-3,4-dihydroisoquinolin-2(1H)-yl}acetyl)octahydro-2H-pyrido[1,2-a]pyrazine]	< 1 µM
CC(C)N1CCN(C(=O)CN2CCc3cc(-c4cccnn4)ccc3C2)CC1 [Compound 164, 2-[2-(4-isopropylpiperazin-1-yl)-2-oxoethyl]-6-pyridazin-3-yl-1,2,3,4-tetrahydroisoquinoline]	< 1 µM
CC1CCCC2CN(C(=O)CN3CCc4cc(-c5cccnn5)ccc4C3)CCN12 (centres unmarked) [Compound 165, 6-methyl-2-[(6-pyridazin-3-yl-3,4-dihydroisoquinolin-2(1H)-yl)acetyl]octahydro-2H-pyrido[1,2-a]pyrazine]	< 1 µM
Cc1ccc(-c2ccc3c(c2)CCN(CC(=O)N2CCN(C4CCC4)CC2)C3)nn1 [Compound 166, 2-[2-(4-cyclobutylpiperazin-1-yl)-2-oxoethyl]-6-(6-methylpyridazin-3-yl)-1,2,3,4-tetrahydroisoquinoline]	< 1 µM
CC1(N2CCN(C(=O)CN3CCc4cc(-c5cncnc5)ccc4C3)CC2)CCC1 [Compound 169, 2-{2-[4-(1-methylcyclobutyl)piperazin-1-yl]-2-oxoethyl}-6-pyrimidin-5-yl-1,2,3,4-tetrahydroisoquinoline]	< 1 µM
O=C(CN1CCc2nc(-c3cccnn3)ccc2C1)N1CCN(C2CCC2)CC1 [Compound 172, 6-[2-(4-cyclobutylpiperazin-1-yl)-2-oxoethyl]-2-pyridazin-3-yl-5,6,7,8-tetrahydro-1,6-naphthyridine]	< 1 µM
CC(C)[C@@H]1CN(C(=O)CN2CCc3cc(-c4cncnc4)ccc3C2)CCN1C1CCC1 [Compound 189, 2-{2-[(3R)-4-cyclobutyl-3-isopropylpiperazin-1-yl]-2-oxoethyl}-6-pyrimidin-5-yl-1,2,3,4-tetrahydroisoquinoline]	< 1 µM
Cc1ccc(-c2ccc3c(c2)CCN(CC(=O)N2CCN(C4CCCC4C)CC2)C3)nn1 (centres unmarked) [Compound 190, 2-{2-[4-(2-methylcyclopentyl)piperazin-1-yl]-2-oxoethyl}-6-(6-methylpyridazin-3-yl)-1,2,3,4-tetrahydroisoquinoline]	< 1 µM
CC1CCCC1N1CCN(C(=O)CN2CCc3cc(-c4cccnn4)ccc3C2)CC1 (centres unmarked) [Compound 191, 2-{2-[4-(2-methylcyclopentyl)piperazin-1-yl]-2-oxoethyl}-6-pyridazin-3-yl-1,2,3,4-tetrahydroisoquinoline]	< 1 µM
Cn1cc(-c2ccc3c(c2)CCN(CC(=O)N2CCN(C4CCC4)CC2)C3)ccc1=O [Compound 192, 5-{2-[2-(4-cyclobutylpiperazin-1-yl)-2-oxoethyl]-1,2,3,4-tetrahydroisoquinolin-6-yl}-1-methylpyridin-2(1H)-one]	< 1 µM
O=C(CN1CCc2cc(-n3ncccc3=O)ccc2C1)N1CCN(C2CCC2)CC1 [Compound 193, 2-{2-[2-(4-cyclobutylpiperazin-1-yl)-2-oxoethyl]-1,2,3,4-tetrahydroisoquinolin-6-yl}pyridazin-3(2H)-one]	< 1 µM
O=C(CN1CCc2cc(OCc3ccccc3)ccc2C1)N1CCN(C2CCC2)CC1 [Compound 194, 6-(benzyloxy)-2-[2-(4-cyclobutylpiperazin-1-yl)-2-oxoethyl]-1,2,3,4-tetrahydroisoquinoline]	< 1 µM
O=C(CN1CCc2cc(O)ccc2C1)N1CCN(C2CCC2)CC1 [Compound 195, 2-[2-(4-cyclobutylpiperazin-1-yl)-2-oxoethyl]-1,2,3,4-tetrahydroisoquinolin-6-ol]	< 1 µM
O=C(CN1CCc2cc(OC3CCCC3)ccc2C1)N1CCN(C2CCC2)CC1 [Compound 196, 2-[2-(4-cyclobutylpiperazin-1-yl)-2-oxoethyl]-6-(cyclopentyloxy)-1,2,3,4-tetrahydroisoquinoline]	< 1 µM
CC(C)Oc1ccc2c(c1)CCN(CC(=O)N1CCN(C3CCC3)CC1)C2 [Compound 197, 2-[2-(4-cyclobutylpiperazin-1-yl)-2-oxoethyl]-6-isopropoxy-1,2,3,4-tetrahydroisoquinoline]	< 1 µM
O=C(CN1CCc2cc(Oc3ccc(C(F)(F)F)cn3)ccc2C1)N1CCN(C2CCC2)CC1 [Compound 198, 2-[2-(4-cyclobutylpiperazin-1-yl)-2-oxoethyl]-6-{[5-(trifluoromethyl)pyridin-2-yl]oxy}-1,2,3,4-tetrahydroisoquinoline]	< 1 µM
COc1ccc(-n2cc3c(n2)CCN(CC(=O)N2CCN(C4CCC4)CC2)C3)nn1 [Compound 199, 5-[2-(4-cyclobutylpiperazin-1-yl)-2-oxoethyl]-2-(6-methoxypyridazin-3-yl)-4,5,6,7-tetrahydro-2H-pyrazolo[4,3-c]pyridine]	< 1 µM
Cc1ccc(-n2cc3c(n2)CCN(CC(=O)N2CCN(C4CCC4)CC2)C3)nn1 [Compound 200, 5-[2-(4-cyclobutylpiperazin-1-yl)-2-oxoethyl]-2-(6-methylpyridazin-3-yl)-4,5,6,7-tetrahydro-2H-pyrazolo[4,3-c]pyridine]	< 1 µM

The remaining lines, values ahead:

Ki	SMILES
< 1 µM	O=C(CN1CCc2nc(N3CCCCC3)ncc2C1)N1CCN(C2CCC2)CC1 [Compound 155, 6-[2-(4-cyclobutylpiperazin-1-yl)-2-oxoethyl]-2-piperidin-1-yl-5,6,7,8-tetrahydropyrido[4,3-d]pyrimidine]
< 1 µM	O=C(CN1CCc2nc(N3CCCCC3)ncc2C1)N1CCN(C2CCCC2)CC1 [Compound 156, 6-[2-(4-cyclopentylpiperazin-1-yl)-2-oxoethyl]-2-piperidin-1-yl-5,6,7,8-tetrahydropyrido[4,3-d]pyrimidine]
< 1 µM	O=C(CN1CCc2nc(Cl)ccc2C1)N1CCN(C2CCC2)CC1 [Compound 168, 2-chloro-6-[2-(4-cyclobutylpiperazin-1-yl)-2-oxoethyl]-5,6,7,8-tetrahydro-1,6-naphthyridine]
< 1 µM	O=C(CN1CCc2nc(-c3cncnc3)ccc2C1)N1CCN(C2CCC2)CC1 [Compound 171, 6-[2-(4-cyclobutylpiperazin-1-yl)-2-oxoethyl]-2-pyrimidin-5-yl-5,6,7,8-tetrahydro-1,6-naphthyridine]
< 1 µM	CC(=O)c1ccc2c(n1)CCN(CC(=O)N1CCN(C3CCC3)CC1)C2 [Compound 173, 1-{6-[2-(4-cyclobutylpiperazin-1-yl)-2-oxoethyl]-5,6,7,8-tetrahydro-1,6-naphthyridin-2-yl}ethanone]
< 1 µM	O=C(CN1CCc2nc(N3CCOCC3)ccc2C1)N1CCN(C2CCC2)CC1 [Compound 175, 6-[2-(4-cyclobutylpiperazin-1-yl)-2-oxoethyl]-2-morpholin-4-yl-5,6,7,8-tetrahydro-1,6-naphthyridine]
< 1 µM	O=C(CN1CCc2nc(N3CCCC3)ccc2C1)N1CCN(C2CCC2)CC1 [Compound 176, 6-[2-(4-cyclobutylpiperazin-1-yl)-2-oxoethyl]-2-pyrrolidin-1-yl-5,6,7,8-tetrahydro-1,6-naphthyridine]
< 1 µM	CC1CN(c2ccc3c(n2)CCN(CC(=O)N2CCN(C4CCC4)CC2)C3)CC(C)O1 (centres unmarked) [Compound 182, 6-[2-(4-cyclobutylpiperazin-1-yl)-2-oxoethyl]-2-(2,6-dimethylmorpholin-4-yl)-5,6,7,8-tetrahydro-1,6-naphthyridine]
< 1 µM	O=C(CN1CCc2nc(N3CCC(F)(F)CC3)ccc2C1)N1CCN(C2CCC2)CC1 [Compound 183, 6-[2-(4-cyclobutylpiperazin-1-yl)-2-oxoethyl]-2-(4,4-difluoropiperidin-1-yl)-5,6,7,8-tetrahydro-1,6-naphthyridine]
< 1 µM	COCCN(C)c1ccc2c(n1)CCN(CC(=O)N1CCN(C3CCC3)CC1)C2 [Compound 184, 6-[2-(4-cyclobutylpiperazin-1-yl)-2-oxoethyl]-N-(2-methoxyethyl)-N-methyl-5,6,7,8-tetrahydro-1,6-naphthyridin-2-amine]
< 1 µM	O=C(CN1CCc2nc(OC3CCCC3)ccc2C1)N1CCN(C2CCC2)CC1 [Compound 185, 6-[2-(4-cyclobutylpiperazin-1-yl)-2-oxoethyl]-2-(cyclopentyloxy)-5,6,7,8-tetrahydro-1,6-naphthyridine]
< 1 µM	CC1CCC[C@H]2CN(C(=O)CN3CCc4nc(N5CCOCC5)ncc4C3)CCN12 (some centres unmarked) [Compound 186, 6-[2-(6-methyloctahydro-2H-pyrido[1,2-a]pyrazin-2-yl)-2-oxoethyl]-2-morpholin-4-yl-5,6,7,8-tetrahydropyrido[4,3-d]pyrimidine]
< 1 µM	CC1CN(c2ncc3c(n2)CCN(CC(=O)N2CCN(C4CCC4)CC2)C3)CC(C)O1 (centres unmarked) [Compound 187, 6-[2-(4-cyclobutylpiperazin-1-yl)-2-oxoethyl]-2-(2,6-dimethylmorpholin-4-yl)-5,6,7,8-tetrahydropyrido[4,3-d]pyrimidine]
